Where two headings read alike, the source gives them in different places.
Experiments:
[1] = test system: 5-HT2AR, 5-HT2BR, and 5-HT2CR; settings: cited from earlier work
[2] = target: human 5-HT2AR (Homo sapiens, UniProt P28223); experiment: Ca2+/Fluo-4 assay, agonist mode, stable 5-HT2AR-HEK293 cells; settings: for 5-HT2AR pEC50 ± S.E.M. / 5-HT2AR Rmax ± S.E.M.: Table S2; for EC50: at least 3 independent experiments; for 5-HT2AR Rmax (%): % of the 5-HT Rmax; for 5-HT2AR Rmax ± S.E.M.: % of the 5-HT Rmax on the same 96-well plate
[3] = target: T1, human 5-HT2CR (Homo sapiens, UniProt P28335); experiment: Ca2+/Fluo-4 assay, agonist mode, stable 5-HT2CR-HEK293 cells
[4] = target: T1, human 5-HT2CR; experiment: Ca2+/Fluo-4 assay, antagonist mode (5-HT EC90 as agonist), stable 5-HT2CR-HEK293 cells
[5] = test system: MDR1 (P-gp); experiment: MDR1-MDCK II permeability assay; assay type: in vitro ADME; settings: dog, MDCK-MDR1, pH 7.4
[6] = test system: MDR1; experiment: MDR1-MDCK II permeability assay; assay type: in vitro ADME; settings: dog, MDCK-MDR1, pH 7.4, Table S6
[7] = test system: MDR1-MDCKII; experiment: MDR1-MDCK II permeability assay; assay type: in vitro ADME; settings: Table S6
[8] = target: T2, human 5-HT2BR (Homo sapiens, UniProt P41595); experiment: [125I]DOI competition binding assay
T2 construct: host or cells: HEK293 (membrane homogenates)
Method: (§1) Following incubation, the samples were filtered rapidly under vacuum through glass fiber filters (GF/B, Packard) presoaked with 0.3% polyethylenimine and rinsed several times with ice cold wash buffer (50 mM Tris-HCl, pH 7.4) using a 96-sample cell harvester (Unifilter, Packard). The filters were dried and then counted for radioactivity in a scintillation counter (Topcounter, Packard) using a scintillation cocktail (Microscint-0, Packard).

[9] = target: T1, human 5-HT2CR; experiment: [125I]DOI competition binding assay
Method: as §1

[10] = read-out: 5-HT2AR EC50, Table 1
[11] = 5-HT2CR EC50 (nM), Table 1, at least 3 independent experiments
[12] = 5-HT2CR pIC50 ± S.E.M., Table S2
[13] = read-out: 5-HT2CR EC50, Table 1, at least 3 independent experiments

T1 sequence (P28335 33-458): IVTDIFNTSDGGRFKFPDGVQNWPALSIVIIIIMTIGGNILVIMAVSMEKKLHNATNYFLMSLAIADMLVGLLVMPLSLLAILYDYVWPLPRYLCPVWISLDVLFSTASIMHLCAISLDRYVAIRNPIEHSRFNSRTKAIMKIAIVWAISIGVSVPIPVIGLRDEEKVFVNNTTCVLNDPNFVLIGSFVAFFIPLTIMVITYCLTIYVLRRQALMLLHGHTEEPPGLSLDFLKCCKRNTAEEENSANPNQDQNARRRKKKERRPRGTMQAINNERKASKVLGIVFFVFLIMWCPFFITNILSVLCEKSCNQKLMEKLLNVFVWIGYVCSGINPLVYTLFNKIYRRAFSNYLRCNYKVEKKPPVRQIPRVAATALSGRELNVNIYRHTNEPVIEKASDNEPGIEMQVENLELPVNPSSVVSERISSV
human 5-HT2AR, sequence (P28223 whole entry): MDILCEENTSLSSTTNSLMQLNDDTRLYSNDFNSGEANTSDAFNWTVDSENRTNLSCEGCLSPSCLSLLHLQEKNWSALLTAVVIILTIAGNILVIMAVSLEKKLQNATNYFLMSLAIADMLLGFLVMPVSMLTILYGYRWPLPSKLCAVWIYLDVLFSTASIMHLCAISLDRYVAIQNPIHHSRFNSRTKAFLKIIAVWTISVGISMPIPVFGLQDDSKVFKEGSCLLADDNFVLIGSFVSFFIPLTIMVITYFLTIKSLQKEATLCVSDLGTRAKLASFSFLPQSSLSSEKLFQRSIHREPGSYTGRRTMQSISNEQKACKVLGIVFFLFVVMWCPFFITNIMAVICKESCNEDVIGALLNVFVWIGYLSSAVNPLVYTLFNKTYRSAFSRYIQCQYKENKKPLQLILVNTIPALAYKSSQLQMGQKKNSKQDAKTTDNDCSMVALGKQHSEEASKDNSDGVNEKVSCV
T2 sequence (P41595 whole entry): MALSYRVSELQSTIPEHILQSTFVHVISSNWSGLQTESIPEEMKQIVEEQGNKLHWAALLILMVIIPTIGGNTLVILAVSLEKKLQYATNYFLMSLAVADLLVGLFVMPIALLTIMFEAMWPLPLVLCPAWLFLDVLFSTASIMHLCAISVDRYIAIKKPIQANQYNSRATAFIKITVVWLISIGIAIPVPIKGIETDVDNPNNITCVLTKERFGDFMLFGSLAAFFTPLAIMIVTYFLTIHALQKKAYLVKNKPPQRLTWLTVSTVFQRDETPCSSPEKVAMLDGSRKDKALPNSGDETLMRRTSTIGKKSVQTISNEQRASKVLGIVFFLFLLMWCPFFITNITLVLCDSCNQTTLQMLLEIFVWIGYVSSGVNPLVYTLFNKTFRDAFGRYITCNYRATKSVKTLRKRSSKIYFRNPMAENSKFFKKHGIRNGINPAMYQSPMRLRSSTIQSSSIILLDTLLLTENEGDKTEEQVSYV

For `CN(C)CCc1c[nH]c2cccc(O)c12` [psilocin], the “agonist profile at 5-HT2AR, 5-HT2BR, and 5-HT2CR (in words)” value [1] is given as “equipotent and equiefficacious agonist”.

For `COc1cc(C2CCCNC2)c(OC)cc1C#N` (centres unmarked) [Compound 10eu, 2,5-Dimethoxy-4-(piperidin-3-yl)benzonitrile], the “5-HT2AR pEC50 ± S.E.M.” value [2] was 6.56 ± 0.13, the EC50 [2, 10] was 270 nM and the EC50 [3, 11] was > 50000 nM. The IC50 [4, 12] was ~15800 nM.

In the case of `COc1cc(C2CCCNC2)c(OC)cc1Br` (centres unmarked) [Compound 6eu, 3-(4-Bromo-2,5-dimethoxyphenyl)piperidine], the EC50 ([2]; 5-HT2AR EC50 (nM), Table 1) is reported as 69 nM, the “agonist activity at 5-HT2CR (in words)” value [3] is reported as “devoid of measurable agonist activity” and the EC50 [3, 11] is reported as > 50000 nM. The IC50 ([4]; 5-HT2CR IC50, Table 1) was 640 nM and the IC50 [4, 12] was 631 nM.

With `COc1cc(C2CCCNC2)c(OC)cc1I` (centres unmarked) [Compound 9eu, 3-(4-Iodo-2,5-dimethoxyphenyl)piperidine] the “5-HT2AR pEC50 ± S.E.M.” value [2] was 7.43 ± 0.02, the EC50 [2, 10] was 37 nM and the EC50 [3, 11] was > 50000 nM. For the same compound, the IC50 [4, 12] was 1100 nM.

For `CCOc1cc(C2CCCNC2)c(OC)cc1C(F)(F)F.Cl` (centres unmarked) [Compound 25eu, 3-(5-Ethoxy-2-methoxy-4-(trifluoromethyl)phenyl)piperidine Hydrochloride], the “5-HT2AR Rmax (%)” value ([2]; Table 2) was 95%, the “5-HT2AR pEC50 ± S.E.M.” value [2] was 7.99 ± 0.11 and the “5-HT2AR Rmax ± S.E.M.” value [2] was 95 ± 1%. The EC50 ([2]; read-out: 5-HT2AR EC50, Table 2) was 10 nM, the “5-HT2CR pEC50 ± S.E.M.” value ([3]; Table S2) was 6.54 ± 0.04 and the EC50 ([3]; read-out: 5-HT2CR EC50, Table 2, at least 3 independent experiments) was 290 nM.

For `CC(C)(C)NCC(O)COc1cccc2c1CC(O)C(O)C2` (centres unmarked) [Nadolol], the Papp A→B at […] [5] was 0.54 ×10⁻⁶ cm/s, the recovery at […] ([6]; read-out: Mean Recovery A to B) was 93% and the “Rank Papp” value [7] was “Low”.

`C[C@H]1O[C@@H](O[C@H]2[C@@H](O)C[C@H](O[C@H]3[C@@H](O)C[C@H](O[C@H]4CC[C@@]5(C)[C@H](CC[C@@H]6[C@@H]5C[C@@H](O)[C@]5(C)[C@@H](C7=CC(=O)OC7)CC[C@]65O)C4)O[C@@H]3C)O[C@@H]2C)C[C@H](O)[C@@H]1O` [Digoxin] gave a Papp A→B at […] [5] of 0.22 ×10⁻⁶ cm/s, a Papp B→A at […] [5] of 12.4 ×10⁻⁶ cm/s and a recovery at […] ([6]; read-out: Mean Recovery B to A) of 92%. For the same compound, the “Rank Papp” value [7] was “Low”.

In the case of `CCCCc1cc(OC)c(C2CCCNC2)cc1OC.Cl` (centres unmarked) [Compound 14eu, 3-(4-Butyl-2,5-dimethoxyphenyl)piperidine Hydrochloride], the “5-HT2AR pEC50 ± S.E.M.” value [2] is reported as 6.57 ± 0.06, the EC50 [2, 10] is reported as 270 nM and the EC50 [3, 11] is reported as > 10000 nM.

In the case of `Br.COc1cc(C2CCNC2)c(OC)cc1Br` (centres unmarked) [Compound 5eu, 3-(4-Bromo-2,5-dimethoxyphenyl)pyrrolidine Hydrobromide], the “5-HT2AR Rmax (%)” value ([2]; Table 1) is reported as 57 ± 3%, the “5-HT2AR pEC50 ± S.E.M.” value [2] is reported as 8.28 ± 0.07 and the “5-HT2AR Rmax ± S.E.M.” value [2] is reported as 57 ± 3%. For the same compound, the EC50 [2, 10] was 5.3 nM, the “Rmax at 5-HT2CR” value [3] was 16% and the “5-HT2CR Rmax (%)” value ([3]; Table 1, % of the 5-HT Rmax) was 73 ± 3%. The “5-HT2CR pEC50 ± S.E.M.” value ([3]; Table S2) was 7.59 ± 0.03, the “5-HT2CR Rmax ± S.E.M.” value ([3]; Table S2, % of the 5-HT Rmax on the same 96-well plate) was 73 ± 3% and the EC50 [3, 13] was 26 nM.

In the case of `COc1cc(C2CCCNC2)c(OC)cc1C.Cl` (centres unmarked) [Compound 12eu, 3-(2,5-Dimethoxy-4-methylphenyl)piperidine Hydrochloride], the “5-HT2AR pEC50 ± S.E.M.” value [2] is reported as 6.98 ± 0.10, the EC50 [2, 10] is reported as 100 nM and the EC50 [3, 11] is reported as > 10000 nM.

In the case of `COc1cc(C2CCCNC2)c(OC)cc1SC.Cl` (centres unmarked) [Compound 15eu, 3-(2,5-Dimethoxy-4-(methylthio)phenyl)piperidine Hydrochloride], the “5-HT2AR pEC50 ± S.E.M.” value [2] is reported as 7.59 ± 0.11, the EC50 [2, 10] is reported as 26 nM and the “5-HT2CR pEC50 ± S.E.M.” value ([3]; Table S2) is reported as 6.29 ± 0.06. The EC50 [3, 13] was 510 nM.

In the case of `COc1cc(C(F)(F)F)c(OC)cc1[C@@H]1CCCN(C)C1` [(S)-19, (S)-3-(2,5-Dimethoxy-4-(trifluoromethyl)phenyl)-1-methylpiperidine], the “5-HT2AR Rmax (%)” value ([2]; Table 2) is reported as 19%, the “5-HT2AR Rmax ± S.E.M.” value [2] is reported as 19 ± 2% and the “5-HT2CR pEC50 ± S.E.M.” value ([3]; Table S2) is reported as 6.04 ± 0.03.

With `COc1cc(C2CCCNC2)c(OC)cc1C#N` (centres unmarked) [Compound 10dis, 2,5-Dimethoxy-4-(piperidin-3-yl)benzonitrile] the “5-HT2AR pEC50 ± S.E.M.” value [2] was 5.66 ± 0.06, the EC50 [2, 10] was 2200 nM and the “5-HT2CR pEC50 ± S.E.M.” value ([3]; Table S2) was ~ 5.0. The EC50 [3, 13] was ~10000 nM and the EC50 ([3]; read-out: 5-HT2CR EC50, Table S2) was ~10000 nM.

For `COc1cc(C2CCCNC2)c(OC)cc1I` (centres unmarked) [Compound 9dis, 3-(4-Iodo-2,5-dimethoxyphenyl)piperidine], the “5-HT2AR pEC50 ± S.E.M.” value [2] was 6.58 ± 0.03, the EC50 [2, 10] was 260 nM and the “5-HT2CR pEC50 ± S.E.M.” value ([3]; Table S2) was 5.55 ± 0.08. For the same compound, the EC50 [3, 13] was 2800 nM.

With `COc1ccc(OC)c(C2CCCNC2)c1` (centres unmarked) [Compound 7, 3-(2,5-Dimethoxyphenyl)piperidine] the “agonist activity at 5-HT2AR (in words)” value [2] was “very weak 5-HT2AR agonist activity”, the EC50 ([2]; 5-HT2AR EC50 (nM), Table 1) was > 10000 nM and the EC50 [3, 11] was > 10000 nM.

With `COCCc1ccc(OCC(O)CNC(C)C)cc1` (centres unmarked) [Metoprolol] the Papp A→B at […] [5] was 24.2 ×10⁻⁶ cm/s, the recovery at […] ([6]; read-out: Mean Recovery A to B) was 97% and the “Rank Papp” value [7] was “High”.

Work on `COc1cc(CC(C)N)c(OC)cc1I` (racemic) [(±)-DOI, 1-(4-iodo-2,5-dimethoxyphenyl)propan-2-amine, reference compound] yielded a Ki [8] of 1.23 nM and a Ki [9] of 0.51 nM.

With `COc1cc(C2CCCNC2)c(OC)cc1Cl` (centres unmarked) [Compound 8eu, 3-(4-Chloro-2,5-dimethoxyphenyl)piperidine] the “5-HT2AR pEC50 ± S.E.M.” value [2] was 7.18 ± 0.05, the EC50 [2, 10] was 66 nM and the EC50 [3, 11] was > 50000 nM. The IC50 [4, 12] was 871 nM.

With `CCCCc1cc(OC)c(C2CCCNC2)cc1OC.Cl` (centres unmarked) [Compound 14dis, 3-(4-Butyl-2,5-dimethoxyphenyl)piperidine Hydrochloride] the “5-HT2AR pEC50 ± S.E.M.” value [2] was 6.46 ± 0.05, the EC50 [2, 10] was 340 nM and the “5-HT2CR pEC50 ± S.E.M.” value ([3]; Table S2) was 5.80 ± 0.07. It also gave an EC50 [3, 13] of 1600 nM.

— PMC11089506 (Journal of Medicinal Chemistry, 2024)
